Experimental data from patent publication US9132084B2, “Methods for administration and formulations for the treatment of regional adipose tissue” (NEOTHETICS, INC., priority 2009, dated 2015).

Test: Plasma pharmacokinetics following a single intravenous and subcutaneous injection of a combination of formoterol and budesonide
Details: for AUC(0-inf): AUCinf; for bioavailability: F (bioavailability); for concentration at 0.0333 hr: female 2-0623, 0.0333 hr; for concentration at 0.0833 hr: female 2-0623, 0.0833 hr; for concentration at 0.167 hr: female 2-0623, 0.167 hr; for concentration at 0.333 hr: female 2-0623, 0.333 hr; for concentration at 0.5 hr: female 2-0623, 0.500 hr; for concentration at 0.75 hr: female 2-0623, 0.750 hr; for concentration at 1 hr: female 2-0623, 1.00 hr; for concentration at 2 hr: female 2-0623, 2.00 hr; for concentration at 4 hr: female 2-0623, 4.00 hr; for concentration at 8 hr: female 2-0623, 8.00 hr
Description: Formoterol fumarate dehydrate and budesonide were formulated in 2% PEG-400 in saline. 1 male and 1 female non-naive Gottingen minipigs (8 to 12 kg upon receipt per protocol) were utilized. The animals were housed individually.
Each minipig received a single IV injection of the combined formoterol and budesonide formulation followed by testing of the SC doses. Each dose was separated by at least a 3-day washout period. The IV dose was administered by slow bolus (1 minute; 0.017 hr) into the marginal ear vein, whereas the first SC dose was administered as a bolus injection along the back (neck-region) where there was a longitudinal fat depot. The second SC dose was distributed in 5 separate proximal SC injections separated by approximately 2 cm. Blood samples (approximately 4 mL) were collected via the branchiocephalic plexus at pre-dose and at 2, 5, 10, 20, 30 and 45 minutes, and at 1, 2, 4, 8 and 24 hr post-dose. Blood samples were placed in tubes containing K2-EDTA as the anticoagulant. Samples were processed to plasma by centrifugation and stored frozen at approximately −70° C. (+/−15° C.) until shipment for analysis.
Plasma samples were analyzed for formoterol and budesonide using a qualified liquid chromatography/mass spectrometry/mass mass spectrometry (LC/MS/MS) method. The lower limit of quantitation (LLOQ) was 1.00 pg/mL for formoterol and 25.0 pg/mL for budesonide.
Non-compartmental pharmacokinetic parameters were calculated using WinNonlin 5.2 software, NCA model 202, IV infusion input for the IV data and NCA model 200, extravascular input for the SC data. Individual plasma concentrations for each animal were used in the calculation of pharmacokinetic parameters. Nominal collection times and doses were used in the calculations. The area under the plasma concentration-time curve (AUC) was calculated using linear trapezoidal approximation (linear/log interpolation). Concentration values below the assay limit of quantitation were set to zero for calculations. The maximum plasma concentration (Cmax) and the time of its occurrence (Tmax) were verified by inspection. The half-life (t1/2) values were calculated using the last 3 plasma concentrations with nonzero values, if data permitted.

[1] = female, Gottingen, minipig, in vivo, formoterol 0.4 μg/kg SC1 single site, combination, female 2-0623
[2] = female, Gottingen, minipig, in vivo, formoterol 0.4 μg/kg SC5 (5 sites), combination, female 2-0623
[3] = female, Gottingen, minipig, in vivo, Plasma concentration of formoterol, SC1 0.4 μg/kg, combination
[4] = female, Gottingen, minipig, in vivo, Plasma concentration of formoterol, SC5 0.4 μg/kg, combination
[5] = female, Gottingen, minipig, in vivo, iv, 0.4 ug/kg
[6] = female, Gottingen, minipig, in vivo, iv, 0.4 ug/kg, formoterol 0.4 μg/kg IV in combination with budesonide, female 2-0623
[7] = female, Gottingen, minipig, in vivo, iv, Plasma concentration of formoterol, IV 0.4 μg/kg, combination

For `COc1ccc(CC(C)NCC(O)c2ccc(O)c(NC=O)c2)cc1` (centres unmarked) [Formoterol, formoterol], the “Plasma concentration of formoterol” value (IV 0.4 μg/kg, combination, female 2-0623, 24.0 hr) was “<LLOQ (LLOQ = 1.00 pg/mL for formoterol)”, the “Plasma concentration of formoterol” value (IV 0.4 μg/kg, combination, male 1-0771, 0 hr) was “<LLOQ (LLOQ = 1.00 pg/mL for formoterol)” and the “Plasma concentration of formoterol” value (IV 0.4 μg/kg, combination, male 1-0771, 24.0 hr) was “<LLOQ (LLOQ = 1.00 pg/mL for formoterol)”. For the same compound, the “Plasma concentration of formoterol” value (SC1 0.4 μg/kg, combination, female 2-0623, 0 hr) was “<LLOQ (LLOQ = 1.00 pg/mL for formoterol)”, the “Plasma concentration of formoterol” value (SC1 0.4 μg/kg, combination, female 2-0623, 24.0 hr) was “<LLOQ (LLOQ = 1.00 pg/mL for formoterol)” and the “Plasma concentration of formoterol” value (SC5 0.4 μg/kg, combination, female 2-0623, 0 hr) was “<LLOQ (LLOQ = 1.00 pg/mL for formoterol)”. For the same compound, the “Plasma concentration of formoterol” value (SC5 0.4 μg/kg, combination, male 1-0771, 0 hr) was “<LLOQ (LLOQ = 1.00 pg/mL for formoterol)”, the AUC(0-inf) [1] was 0.378 ng·h/mL and the AUC(0-inf) [2] was 0.577 ng·h/mL. For the same compound, the Cmax [1] was 0.284 ng/mL, the Cmax [2] was 0.256 ng/mL and the bioavailability [1] was 115%. For the same compound, the bioavailability [2] was 176%, the concentration at 0.0333 hr [3] was 0.169 ng/mL and the concentration at 0.0833 hr [3] was 0.284 ng/mL. For the same compound, the concentration at 0.167 hr [3] was 0.237 ng/mL, the concentration at 0.333 hr [3] was 0.156 ng/mL and the concentration at 0.5 hr [3] was 0.127 ng/mL. For the same compound, the concentration at 0.75 hr [3] was 0.0789 ng/mL, the concentration at 1 hr [3] was 0.0678 ng/mL and the concentration at 2 hr [3] was 0.0512 ng/mL. The concentration at 4 hr [3] was 0.0285 ng/mL, the concentration at 8 hr [3] was 0.00858 ng/mL and the concentration at 0.0333 hr [4] was 0.0946 ng/mL. It also gave a concentration at 0.0833 hr [4] of 0.256 ng/mL, a concentration at 0.167 hr [4] of 0.178 ng/mL and a concentration at 0.333 hr [4] of 0.131 ng/mL. The concentration at 0.5 hr [4] was 0.1 ng/mL, the concentration at 0.75 hr [4] was 0.0826 ng/mL and the concentration at 1 hr [4] was 0.0628 ng/mL. The concentration at 2 hr [4] was 0.0444 ng/mL, the concentration at 4 hr [4] was 0.026 ng/mL and the concentration at 8 hr [4] was 0.0103 ng/mL. The concentration at 24 hr (female, Gottingen, minipig, in vivo, Plasma concentration of formoterol, SC5 0.4 μg/kg, combination, female 2-0623, 24.0 hr) was 0.00695 ng/mL, the Tmax [1] was 5 min and the Tmax [2] was 5 min. The Vd [5] was 3.17 L/kg, the clearance [5] was 20.3 mL/min/kg and the AUC(0-inf) [6] was 0.328 ng·h/mL. For the same compound, the Cmax [6] was 0.9 ng/mL, the Tmax [6] was 2 min and the half-life (female, Gottingen, minipig, in vivo, iv, 0.4 ug/kg, t1/2, formoterol 0.4 μg/kg IV in combination with budesonide, female 2-0623) was 2.86 h. The concentration at 0 hr (female, Gottingen, minipig, in vivo, iv, Plasma concentration of formoterol, IV 0.4 μg/kg, combination, female 2-0623, 0 hr) was 0.00353 ng/mL, the concentration at 0.0333 hr [7] was 0.9 ng/mL and the concentration at 0.0833 hr [7] was 0.204 ng/mL. The concentration at 0.167 hr [7] was 0.11 ng/mL, the concentration at 0.333 hr [7] was 0.0735 ng/mL and the concentration at 0.5 hr [7] was 0.0984 ng/mL. It also gave a concentration at 0.75 hr [7] of 0.0614 ng/mL, a concentration at 1 hr [7] of 0.0454 ng/mL and a concentration at 2 hr [7] of 0.0313 ng/mL. For the same compound, the concentration at 4 hr [7] was 0.0184 ng/mL, the concentration at 8 hr [7] was 0.00726 ng/mL and the half-life (female, Gottingen, minipig, in vivo, t1/2, formoterol 0.4 μg/kg SC1 single site, combination, female 2-0623) was 2.33 h. It also gave a half-life (female, Gottingen, minipig, in vivo, t1/2, formoterol 0.4 μg/kg SC5 (5 sites), combination, female 2-0623) of 12.8 h and a tlast (formoterol 0.4 μg/kg IV in combination with budesonide, female 2-0623) of 8.00 h.
